Assay results taken from patent publication US20150004237A1, “CELLULOSE DERIVATIVES FOR INHIBITING CRYSTALLIZATION OF POORLY WATER-SOLUBLE DRUGS” (Virginia Tech Intellectual Properties, Inc., priority 2012, published 2015).
In brackets after ≈: the same amount, converted by molar mass. Several values for one entry are separate records, joined by “and”; a condition that tells them apart may be missing. Equal entries are not always repeated. Where two headings read alike, the source gives them in different places.

Assays:
[1] = Quercetin release profile; assay type: physicochemical; details: pH 6.8 buffer, Que 0.07 mg/mL
Description: In the measurement of drug release profiles, maximum Que concentration was fixed at 0.07 mg/mL in pH 6.8 buffer solution. The UV-vis absorption of the solution was measured and plotted vs. time. Release profiles were determined.

[2] = pH 6.8; cited from earlier work
[3] = pH 6.8
[4] = Crystal growth rate of celecoxib (seeded desupersaturation); assay type: physicochemical; details: supersaturation ratio of 1.2
[5] = physchem; details: 37 °C, pH 6.8, aqueous buffer, thermodynamic from solid
[6] = Crystal growth rate of efavirenz (seeded desupersaturation); assay type: physicochemical; details: supersaturation ratio of 1.2
[7] = cited from earlier work
[8] = Formation of X-ray amorphous resveratrol-polymer dispersion by rotary evaporation; assay type: physicochemical; details: classification system of Van Eerdenbrugh et al.
Description: All mixtures were visually inspected to confirm that the resveratrol and the polymers were fully dissolved, and that the systems formed uniform one-phase solutions. […] The samples were then placed under vacuum for 24 h to remove any residual solvents. The obtained material was subsequently cryomilled in a liquid nitrogen bath for a total milling time of 4 min. Powder X-Ray Diffraction. Immediately after cryomilling, the samples were analyzed using a Shimadzu XRD-6000 (Shimadzu Corporation, Kyoto, Japan) equipped with a Cu-Kα source and set in Bragg-Brentano geometry between 5° and 35° 2θ at 8°/min with a 0.04° step size. Samples were also analyzed over time following the storage treatments listed above. […] Samples where sharp peaks were observed were deemed crystalline, and those samples that lacked sharp peaks were labeled X-ray amorphous. Physical mixtures of select resveratrol-polymer systems were made to provide a fully crystallized reference. The percent crystallized for certain samples was estimated from a calibration curve generated from analysis of the diffraction patterns of the different solid dispersions, spiked with increasing levels of crystalline resveratrol. […] The crystallinity of these calibration samples was measured immediately after preparation.

[9] = Ritonavir seed crystal size and morphology by SEM; assay type: physicochemical; details: After Crystal Growth (S = 15.4)
Source text: Characterization of Seed Crystals. Ritonavir seed crystals were characterized using scanning electron microscopy (SEM), powder X-ray diffraction analysis (PXRD), and differential scanning calorimetry (DSC). SEM was used to determine the size and shape of ritonavir crystals, while PXRD and DSC were used to evaluate the polymorph of the seed crystals. Ritonavir was used as received from the manufacturer, and prior to use, the seeds were sieved to a size below 250 p.m. Seed crystals used for SEM analysis were prepared by dispersing the seeds in water and equilibrating the water-seed crystal suspension for approximately 24 h. A few drops of the suspension were placed on a glass slide and dried overnight in a vacuum oven at room temperature for approximately 24 h. Before SEM imaging, the glass slides were mounted using double-sticky copper tape and sputter-coated with platinum for 60 s. SEM imaging was performed using an FEI NOVA nanoSEM field emission SEM using an Everhart-Thornley (ET) detector and a through-thelens detector (TLD). The following imaging parameters were used: 5 kV accelerating voltage, approximately 4-5 mm working distance, beam spot size of 3, 30 μm aperture, and 100-10,000× magnifications. The SEM images were analyzed using ImageJ, processing and analysis in Java (National Institutes of Health (NIH)). Several representative samples of seed crystals were obtained before and after crystal growth in the absence and presence of predissolved additive. For each sample, a total of 50 seeds were analyzed to ensure a representative sample, and the average aspect ratio of the crystals was estimated from the average length and width of the crystals.
The polymorphic form of the seed crystals after the crystal growth experiment was also confirmed to be Form II by PXRD. The average length, width, and aspect ratio of ritonavir seed crystals before and after the crystal growth experiment in the presence of the CAP Adp 0.85, Pn-IPAAmd, and CAP Adp 0.85/Pn-IPAAmd polymer combination at initial S values of 7.6 and 15.4 are summarized in Table 6.

[10] = Theoretical amorphous solubility with moisture sorption effect; assay type: physicochemical; details: 37° C.
Source text: Amorphous solubility can be approximated by estimating the free energy difference between crystalline and amorphous forms using the Hoffman equation: […]
The ratio of amorphous and crystalline solubility (Samorphous/Scrystalline) is then estimated from the free energy difference (ΔGa→σ) calculated from heat of fusion (ΔHf) and melting temperature (Tm) of the crystalline material determined from DSC analysis, as well as the experimentally determined crystalline solubility:
See Murdande, S. B., Pikal, M. J. Shanker, R. M. & Bogner, R. H., “Solubility Advantage of amorphous pharmaceuticals: I. A thermodynamic analysis,” J. Pharm. Sci., 99(3): 1254-1264, (2009) (“Murdande I”) and Murdande, S. B., Pikal, M. J. Shanker, R. M. & Bogner, R. H., “Solubility Advantage of amorphous pharmaceuticals: II. Application of quantitative thermodynamic relationships for prediction of solubility enhancement in structurally diverse insoluble pharmaceuticals,” Pharm. […]
The moisture sorption profile of amorphous ritonavir was determined at 37° C. using a TA Q5000 dynamic vapor sorption analyzer (TA Instruments, New Castle, Del.) equipped with a humidity controlled chamber and an ultrasensitive thermobalance. […] Subsequently, the moisture sorption isotherm was measured by equilibrating the sample under controlled relative humidity (RH) ranging from 5% RH to 95% RH, in 10% RH intervals. […]

[11] = cited from earlier work; remark: listed apart in the source
[12] = Crystal growth rate of ritonavir (seeded desupersaturation); assay type: physicochemical
[13] = Nucleation-induction time of ritonavir from supersaturated solution; assay type: physicochemical; details: initial 20 μg/mL, no polymer, pH 6.8, 37° C.
Description: The period between the generation of supersaturation and initiation of nucleation was determined by monitoring the absorbance at 280 nm using an ultraviolet/visible spectrometer, fiber optic coupled with a dip probe (SI Photonics® Tucson, Ariz.). Wavelength scans were acquired every 45 seconds. Precipitation was characterized by an increased extinction at 280 nm wavelength. A supersaturated solution of ritonavir was generated by adding 0.4 mL of ritonavir dissolved in methanol at a concentration 4 mg/mL, to 80 mL sodium phosphate buffer, pH 6.8, at 37° C., providing an initial solution concentration of ritonavir of 20 μg/mL. The drug of compositions of the invention can be present in any amount ranging from about 0-100 μg/mL, such as from about 5-10 μg/mL, or from 15-20 μg/mL, or from 25-30 μg/mL, or from 35-50 μg/mL, or from 55-75 μg/mL, or from 80-90 μg/mL. Depending on the drug compound and the types and amounts of polymers used, the most preferred concentration of drug in the compositions ranges from about 5-25 μg/mL. A syringe pump (Harvard Apparatus, Holliston, Mass.) was used to control the rate of addition of organic solution of ritonavir to buffer solution; the flow rate was 0.20 mL/min. […] The ability of the various polymers to affect the nucleation of ritonavir was evaluated using a polymer concentration of 5 μg/mL. […]

[14] = Dynamic light scattering particle size of ritonavir during de-supersaturation; assay type: physicochemical; details: ritonavir 25 μg/mL
Description: Dynamic light scattering (DLS) was used to monitor changes in particle size as a function of time during de-supersaturation experiments. DLS experiments were performed using a Nano-Zetasizer (Nano-ZS) and its software, dispersion technology software (DTS). A 173° backscatter detector was used in order to minimize the signal from large dust particles or other large contaminants. A quartz flow-through cuvette, coupled with a pump was used for continuous sampling. […] Particle size experiments were performed in the absence and presence of pre-dissolved polymers. As an example, ritonavir was used at an initial concentration of 25 μg/mL with a polymer concentration of 50 μg/mL. The buffer solution was allowed to equilibrate at 37° C. prior to addition of solubilized ritonavir. Data collection began after generation of supersaturation. A stir-plate was used to stir the solution at a speed of 400 rpm.

[15] = Ellagic acid release profile; assay type: physicochemical; details: pH 6.8 buffer
[16] = After Crystal Growth (S = 7.6), values from ref 31 / ref 38
[17] = After Crystal Growth (S = 7.6), values from ref 31 / ref 38, listed as RTV
[18] = Before Crystal Growth, values from ref 31

Molecule: O=c1c(O)c(-c2ccc(O)c(O)c2)oc2cc(O)cc(O)c12 [Que, Quercetin]
- Que dissolution / release after 1 h [1]: 0.7%

Molecule: poly(N-iso-propylacrylamide) [Pn-IPAAmd]
- Equilibrium solubility of ritonavir in the presence of polymer (Table 7) [2]: 1.3 ± 0.01 µg/mL
- Equilibrium solubility of efavirenz in the presence of polymer [3]: 8.7 ± 0.07 µg/mL
- Solubility of Ritonavir in the presence of polymer [3]: 1.3 ± 0.01 µg/mL

Molecule: Cc1ccc(-c2cc(C(F)(F)F)nn2-c2ccc(S(N)(=O)=O)cc2)cc1 [celecoxib]
- normalized crystal growth rate of celecoxib [4]: 18.20 μg mL^−1 min^−1 m^−2
- solubility thermodynamic at 48 h [5]: 1.5 µg/mL (≈ 3.93 µM)

Molecule: O=C1Nc2ccc(Cl)cc2[C@@](C#CC2CC2)(C(F)(F)F)O1 [efavirenz]
- normalized crystal growth rate of efavirenz [6]: 59.32 μg mL^−1 min^−1 m^−2
- solubility thermodynamic at 48 h [5]: 8.2 µg/mL (≈ 26 µM)

Molecule: C=CC(=O)O [Acrylic acid]
- pKa [7]: 4.76

Molecule: Oc1ccc(/C=C/c2cc(O)cc(O)c2)cc1 [Resveratrol]
- crystallization tendency during production [8]: rapid crystallizer

Molecule: Poly vinylpyrrolidone K 29/32 [PVP]
- Equilibrium solubility of ritonavir in the presence of polymer (Table 7) [2]: 1.2 ± 0.05 µg/mL

Molecule: Ritonavir
- Equilibrium solubility of ritonavir, no polymer (Table 7) [2]: 1.3 ± 0.10 µg/mL
- aspect ratio [9]: 12.1
- crystal morphology [9]: needle-like
- length [9]: 50.9 ± 14.4 μm
- width [9]: 4.2 ± 1.2 μm
- calculated amorphous solubility with moisture sorption correction [10]: 20.6 µg/mL
- aspect ratio [11, 16]: 8.8 and 7.7
- crystal morphology [11, 16]: needle-like
- length [11, 16]: 50.4 ± 18.6 μm
- width [11, 16]: 5.7±1.4 μm
- aspect ratio [11, 17]: 8.8
- width [11, 17]: 5.7 ± 1.4 μm
- aspect ratio [11, 18]: 7.7
- crystal morphology [11, 18]: needle-like
- length [11, 18]: 44.4 ± 15.2 μm
- width [11, 18]: 5.8 ± 1.9 μm
- initial bulk crystal growth rate of ritonavir ([12]; 100 mM sodium phosphate buffer, initial 10 μg/mL, no polymer, first 2 min): 1.56 µg/mL/min
- normalized crystal growth rate of ritonavir ([12]; supersaturation ratio of 1.2): 3.94 μg mL^−1 min^−1 m^−2
- induction time of ritonavir [13]: approximately 119 minutes
- time particle size was maintained ([14]; no polymer): ~100 min
- size of ritonavir particles ([14]; polymer 50 μg/mL or none, pH 6.8, 37° C., initially formed particles): 350-450 nm

Molecule: O=c1oc2c(O)c(O)cc3c(=O)oc4c(O)c(O)cc1c4c23 [EA, Ellagic Acid]
- EA release after 24 h [15]: 7%
- time of maximum EA release [15]: 2 h
- maximum EA release ([15]; 25° C., EA 0.05 mg/mL): 11%
- aqueous solubility ([7]; pH 7.4): 9.3 µg/mL (≈ 30.8 µM)
